Laboratory results from ChEMBL document CHEMBL1121473, “Conformationally defined aromatic amino acids. Synthesis and stereochemistry of 2-endo- and 2-exo-amino-1,2,3,4-tetrahydro-1,4-ethanonaphthalene-2-carboxylic acids (2-endo- and 2-exo-aminobenzobicycle[2.2.2]octene-2-carboxylic acids)” (J Med Chem, 1980).

Columns and labels:
Enterococcus faecalis [1] = experiment: ability to inhibit the decarboxylation of L-phenyl-alanine using a crude enzyme preparation of phenylalanine decarboxylase (PAD) from Streptococcus faecalis, at 1 mM concentration
Enterococcus faecalis [2] = experiment: Ability to inhibit the decarboxylation of L-phenyl-alanine using a crude enzyme preparation of phenylalanine decarboxylase (PAD) from Streptococcus faecalis at 1.76 mM concentration
Enterococcus faecalis [3] = experiment: Ability to inhibit the decarboxylation of L-phenyl-alanine using a crude enzyme preparation of phenylalanine decarboxylase (PAD) from Streptococcus faecalis, at 1.76 mM concentration
Enterococcus faecalis [4] = experiment: ability to inhibit the decarboxylation of L-phenyl-alanine using a crude enzyme preparation of phenylalanine decarboxylase (PAD) from Streptococcus faecalis, at 1.76 mM concentration

`N[C@@H](Cc1ccc(Cl)cc1)C(=O)O` (racemic) showed an inhibition (Enterococcus faecalis [1]) of 24%.
`NC1(C(=O)O)CC2CC[C@@H]1c1ccccc12` (stereo in doubt; 1a) was tested, and the inhibition (Enterococcus faecalis [2]) was 7%.
Molecule `NC1(C(=O)O)CC2CC[C@@H]1c1ccccc12` (stereo in doubt; 1b) has an inhibition (Enterococcus faecalis [3]) of 8%.
With `C[C@](N)(Cc1ccc(O)c(O)c1)C(=O)O` (racemic) the inhibition (Enterococcus faecalis [4]) was 8%.
